Each structure is given as a SMILES string.

One assay has as its system T1, Salmonella Typhimurium ATCC 14028 (STm).
T1 construct: ATCC 14028
In words: microbe, parasite or virus in culture. The conditions noted are these: Salmonella enterica; M9A, acetate minimal medium, 36 h; read-out: % Growth Inhibition (Avg) / M9A. The arrangement: Broth microdilution growth inhibition of STm at 500 uM in MHB, M9A or M9I, OD600. The protocol:
Antimicrobial susceptibility was assessed using the traditional CLSI minimum inhibitory concentration (MIC) microplate dilution methods with a few modifications ([59]). Briefly, each compound (dissolved in MQ H2O for all pantetheinamides, or DMSO for pantothenamides) was serially diluted in 96-well plates to the desired concentrations. In the case of checkerboard assays, secondary compounds were separately diluted and added to the plate. Mid-exponential phase media-adapted bacteria were added at 5 × 10^5 CFU/mL and in the case of M9I or M9A cultures, the plates were sealed with a gas permeable moisture barrier seal (FroggaBio, Canada) to prevent excessive evaporation, before incubation at 37 °C and 350 rpm, using a tabletop orbital plate shaker (OHAUS, USA). Growth was quantified based on absorbance at 600 nm (OD600) using a microplate reader. The plate was monitored until there was visible growth in the untreated control, but without allowing for overgrowth: ∼14-16h (OD600 > 0.3) in MHB, ∼36 h (OD600 > 0.2) in M9A, and ∼72-120 h (OD600 > 0.15) in M9I. The IC50 was determined using a four-parameter logarithmic curve on Prism v9.0. All experiments were done at minimum in a biological triplicate. […] To accomplish this, the compounds were screened for their ability to reduce STm growth at a high concentration (500 μM) in various media that reflect nutrient-related facets of either extracellular or intracellular environments (Fig. 2a). Mueller-Hinton broth (MHB)—the medium most widely employed for antibacterial testing—was used to represent nutrient-rich extracellular environments such as the gut, while aspects of the nutrient-limited intramacrophage environment were mimicked by using M9-minimal media containing either acetate (M9A) or itaconate (M9I) as the sole carbon source. Growth in M9A requires the glyoxylate shunt, simulating the use of fatty acids ([33]), whereas growth in M9I, as shown in our previous study, requires an active itaconate-degradation pathway and induces excess oxidative stress that is reflective of the intramacrophage environment ([34]). Of the 75 compounds tested, 31 inhibited growth (by >50%) in M9I, six in M9A, and one in MHB. […] In particular, the pantothenamides 6-13 and 6-14 were active in M9A as well as M9I, with 6-13 being the only MHB active compounds. The other M9A active compounds were 1-03 and 1-17 from the “nitro” category and 4-02 and 4-08 from the “fluoro-alkyl” category.  Fig. 2: Screening the pantetheinamides library. a, Percentage growth inhibition of STm by each of the inhibitors in the library, tested at 500 µM in MHB, M9A, or M9I as the sole carbon source. Inhibition % values are summarized in Supplementary Data 1. b, The IC50 in M9I of a subset of the inhibitor library. The full dataset is shown in Fig. S1 and summarized in Supplementary Data 2. c, Dose-response curves in M9I, M9A, and MHB for selected inhibitors, fit to a four-parameter logarithmic curve. d, Tabulated IC50 (± 95% CI), cytotoxicity and selectivity index (given as the cytoxocity/IC50 in M9I) for the same inhibitors as in c. […] The full dataset is shown in Fig. S4a. g, Sample of results summarized in f showing the CFU of surviving STm inside the compound treated macrophages after 22 h. Data bars show the geometric mean of CFU/mL with error bars depicting the 95% CI. The vehicle control (± 95% CI) is shown as the red line. All experiments were independently repeated a minimum of 3 times, where n ≥ 4 for each condition. Significant results were determined using a one-way ANOVA with Dunnett’s multiple comparisons against the vehicle. ✱, p < 0.05; ✱✱, p < 0.01; ✱✱✱, p < 0.001; ✱✱✱✱, p < 0.0001; ns, non-significant, p > 0.05. “X” denotes that a concentration was omitted from the experiment due to toxicity.
Regarding `CC(C)(CO)[C@@H](O)C(=O)NCCC(=O)NCCNC(=O)/C=C/C(F)(F)F` [4-04], the inhibition at 500 µM came out at 37%.
On to `CC(C)(CO)[C@@H](O)C(=O)NCCC(=O)NCCNC(=O)C(F)C(F)(F)F` (some centres unmarked) [4-07], for which the inhibition at 500 µM turned out to be 15%.
Still for that read-out and setting: for `CC(C)(CO)[C@@H](O)C(=O)NCCC(=O)NCCNC(=O)C1CC1(F)F` (some centres unmarked) [4-10] the value was 0%; for `CCCCCCCNC(=O)CCNC(=O)[C@H](O)C(C)(C)CO` [6-13], 100%.
Take `CCCCCCCC(=O)NCCNC(=O)[C@H](O)C(C)(C)CO` [6-14]: the inhibition at 500 µM was found to be 98%.

The same assay, now with this note: Salmonella enterica; M9I, itaconate minimal medium, 72-120 h; read-out: % Growth Inhibition (Avg) / M9I.
On to `CC(C)(CO)[C@@H](O)C(=O)NCCC(=O)NCCNC(=O)/C=C/C(F)(F)F` [4-04], for which the inhibition at 500 µM was 94%.
As for `CC(C)(CO)[C@@H](O)C(=O)NCCC(=O)NCCNC(=O)C(F)C(F)(F)F` (some centres unmarked) [4-07], the inhibition at 500 µM stood at 94%.
Still for that read-out and setting: the value for `CC(C)(CO)[C@@H](O)C(=O)NCCC(=O)NCCNC(=O)C1CC1(F)F` (some centres unmarked) [4-10] was 86%; that for `CCCCCCCNC(=O)CCNC(=O)[C@H](O)C(C)(C)CO` [6-13] was 100%; that for `CCCCCCCC(=O)NCCNC(=O)[C@H](O)C(C)(C)CO` [6-14] was 99%.

Still in this assay, the particulars now being: Salmonella enterica; MHB, nutrient-rich medium, 14-16 h; read-out: % Growth Inhibition (Avg) / MHB.
Regarding `CC(C)(CO)[C@@H](O)C(=O)NCCC(=O)NCCNC(=O)/C=C/C(F)(F)F` [4-04], the inhibition at 500 µM amounted to 0%.
The same measure, in the same setting: for `CC(C)(CO)[C@@H](O)C(=O)NCCC(=O)NCCNC(=O)C(F)C(F)(F)F` (some centres unmarked) [4-07] the value was 1%.
Still for that read-out and setting: for `CC(C)(CO)[C@@H](O)C(=O)NCCC(=O)NCCNC(=O)C1CC1(F)F` (some centres unmarked) [4-10] the value was 11%.
Take `CCCCCCCNC(=O)CCNC(=O)[C@H](O)C(C)(C)CO` [6-13]: the inhibition at 500 µM came out at 90%.
On to `CCCCCCCC(=O)NCCNC(=O)[C@H](O)C(C)(C)CO` [6-14], for which the inhibition at 500 µM turned out to be 16%.

For the next assay the test system is unchanged. The assay can be described thus: microbe, parasite or virus in culture. The arrangement: Broth microdilution dose-response growth inhibition of STm in M9I, OD600, four-parameter fit. The conditions noted are these: Salmonella enterica, read-out: IC50 (µM). The protocol:
Antimicrobial susceptibility was assessed using the traditional CLSI minimum inhibitory concentration (MIC) microplate dilution methods with a few modifications ([59]). Briefly, each compound (dissolved in MQ H2O for all pantetheinamides, or DMSO for pantothenamides) was serially diluted in 96-well plates to the desired concentrations. In the case of checkerboard assays, secondary compounds were separately diluted and added to the plate. Mid-exponential phase media-adapted bacteria were added at 5 × 10^5 CFU/mL and in the case of M9I or M9A cultures, the plates were sealed with a gas permeable moisture barrier seal (FroggaBio, Canada) to prevent excessive evaporation, before incubation at 37 °C and 350 rpm, using a tabletop orbital plate shaker (OHAUS, USA). Growth was quantified based on absorbance at 600 nm (OD600) using a microplate reader. The plate was monitored until there was visible growth in the untreated control, but without allowing for overgrowth: ∼14-16h (OD600 > 0.3) in MHB, ∼36 h (OD600 > 0.2) in M9A, and ∼72-120 h (OD600 > 0.15) in M9I. The IC50 was determined using a four-parameter logarithmic curve on Prism v9.0. All experiments were done at minimum in a biological triplicate. […] Consequently, the activity was reported as an IC50 value, rather than traditional MICs. […] All other categories had 2-4 molecules with sub-100 μM IC50 values. The general trend in activities for the substituents β to the acyl amide saw CF3 (e.g. 4-01) > thiazole (e.g. 5-01) > NO2 (e.g. 1-01) > CH3 (e.g. 3-01). […] Replacement of the thioester with either a sulfonamide or triazole, rather than an amide, was detrimental to activity. […] Furthermore, increasing the conformational rigidity of the α-substituent correlated with higher IC50 values (e.g, 1-14, methyl < 1-15, dimethyl < 1-16, cyclo  Fig. 2: Screening the pantetheinamides library. a, Percentage growth inhibition of STm by each of the inhibitors in the library, tested at 500 µM in MHB, M9A, or M9I as the sole carbon source. Inhibition % values are summarized in Supplementary Data 1. b, The IC50 in M9I of a subset of the inhibitor library. The full dataset is shown in Fig. S1 and summarized in Supplementary Data 2. c, Dose-response curves in M9I, M9A, and MHB for selected inhibitors, fit to a four-parameter logarithmic curve. d, Tabulated IC50 (± 95% CI), cytotoxicity and selectivity index (given as the cytoxocity/IC50 in M9I) for the same inhibitors as in c. […] The full dataset is shown in Fig. S4a. g, Sample of results summarized in f showing the CFU of surviving STm inside the compound treated macrophages after 22 h. Data bars show the geometric mean of CFU/mL with error bars depicting the 95% CI. The vehicle control (± 95% CI) is shown as the red line. All experiments were independently repeated a minimum of 3 times, where n ≥ 4 for each condition. Significant results were determined using a one-way ANOVA with Dunnett’s multiple comparisons against the vehicle. ✱, p < 0.05; ✱✱, p < 0.01; ✱✱✱, p < 0.001; ✱✱✱✱, p < 0.0001; ns, non-significant, p > 0.05. “X” denotes that a concentration was omitted from the experiment due to toxicity.
A word on the IC50: it is the concentration at which inhibition is half-maximal. In the case of `CC(C)(CO)[C@@H](O)C(=O)NCCC(=O)NCCNC(=O)/C=C/C(F)(F)F` [4-04], the IC50 amounted to 5.1 µM.
As for `CC(C)(CO)[C@@H](O)C(=O)NCCC(=O)NCCNC(=O)C(F)C(F)(F)F` (some centres unmarked) [4-07], the concentration for half-maximal inhibition (IC50) came to 30 µM.
Same read-out and setting: for `CC(C)(CO)[C@@H](O)C(=O)NCCC(=O)NCCNC(=O)C1CC1(F)F` (some centres unmarked) [4-10] the value was 29 µM; for `CCCCCCCNC(=O)CCNC(=O)[C@H](O)C(C)(C)CO` [6-13], 0.13 µM; for `CCCCCCCC(=O)NCCNC(=O)[C@H](O)C(C)(C)CO` [6-14], 1.1 µM.

The values above are taken from article doi:10.1101/2025.10.28.685111v1.
